Test results as given in ChEMBL document CHEMBL4270553, “Synthesis and anticancer activity of new dihydropyrimidinone derivatives” (Eur J Med Chem, 2018).

How the values were obtained:
A549 = test: Antiproliferative activity against human A549/ATCC cells assessed as growth inhibition at 10 uM after 48 hrs by sulforhodamine B assay relative to control; assay type: functional; conditions: A549, 48 h, read-out: GI
SK-MEL-5 = test: Antiproliferative activity against human SK-MEL-5 cells assessed as growth inhibition at 10 uM after 48 hrs by sulforhodamine B assay relative to control; assay type: functional; conditions: SK-MEL-5, 48 h, read-out: GI
MOLT-4 = test: Antiproliferative activity against human MOLT4 cells assessed as growth inhibition at 10 uM after 48 hrs by sulforhodamine B assay relative to control; assay type: functional; conditions: MOLT-4, 48 h, read-out: GI
UO-31 = test: Antiproliferative activity against human UO31 cells assessed as growth inhibition at 10 uM after 48 hrs by sulforhodamine B assay relative to control; assay type: functional; conditions: UO-31, 48 h, read-out: GI
OVCAR-4 = test: Antiproliferative activity against human OVCAR4 cells assessed as growth inhibition at 10 uM after 48 hrs by sulforhodamine B assay relative to control; assay type: functional; conditions: OVCAR-4, 48 h, read-out: GI
MCF7 [1] = test: Antiproliferative activity against human MCF7 cells assessed as growth inhibition at 10 uM after 48 hrs by sulforhodamine B assay relative to control; assay type: functional; conditions: MCF7, 48 h, read-out: GI
NCI-H522 = test: Antiproliferative activity against human NCI-H522 cells assessed as growth inhibition at 10 uM after 48 hrs by sulforhodamine B assay relative to control; assay type: functional; conditions: NCI-H522, 48 h, read-out: GI
K562 = test: Antiproliferative activity against human K562 cells assessed as growth inhibition at 10 uM after 48 hrs by sulforhodamine B assay relative to control; assay type: functional; conditions: K562, 48 h, read-out: GI
HL-60(TB) = test: Antiproliferative activity against human HL-60(TB) cells assessed as growth inhibition at 10 uM after 48 hrs by sulforhodamine B assay relative to control; assay type: functional; conditions: HL-60, 48 h, read-out: GI
CAKI-1 = test: Antiproliferative activity against human Caki1 cells assessed as growth inhibition at 10 uM after 48 hrs by sulforhodamine B assay relative to control; assay type: functional; conditions: CAKI-1, 48 h, read-out: GI
HCT-116 [2] = test: Antiproliferative activity against human HCT116 cells assessed as growth inhibition at 10 uM after 48 hrs by sulforhodamine B assay relative to control; assay type: functional; conditions: HCT-116, 48 h, read-out: GI
T47D = test: Antiproliferative activity against human T47D cells assessed as growth inhibition at 10 uM after 48 hrs by sulforhodamine B assay relative to control; assay type: functional; conditions: read-out: GI
HCT-15 = test: Antiproliferative activity against human HCT15 cells assessed as growth inhibition at 10 uM after 48 hrs by sulforhodamine B assay relative to control; assay type: functional; conditions: HCT-15, 48 h, read-out: GI
LOX IMVI = test: Antiproliferative activity against human LOXIMVI cells assessed as growth inhibition at 10 uM after 48 hrs by sulforhodamine B assay relative to control; assay type: functional; conditions: read-out: GI
SR = test: Antiproliferative activity against human SR cells assessed as growth inhibition at 10 uM after 48 hrs by sulforhodamine B assay relative to control; assay type: functional; conditions: read-out: GI
PC-3 [3] = test: Antiproliferative activity against human PC3 cells assessed as growth inhibition at 10 uM after 48 hrs by sulforhodamine B assay relative to control; assay type: functional; conditions: PC-3, 48 h, read-out: GI
NCI/ADR-RES = test: Antiproliferative activity against human NCI/ADR-RES cells assessed as growth inhibition at 10 uM after 48 hrs by sulforhodamine B assay relative to control; assay type: functional; conditions: read-out: GI
SF-295 = test: Antiproliferative activity against human SF295 cells assessed as growth inhibition at 10 uM after 48 hrs by sulforhodamine B assay relative to control; assay type: functional; conditions: SF-295, 48 h, read-out: GI
ACHN = test: Antiproliferative activity against human ACHN cells assessed as growth inhibition at 10 uM after 48 hrs by sulforhodamine B assay relative to control; assay type: functional; conditions: read-out: GI
NCI-H460 = test: Antiproliferative activity against human NCI-H460 cells assessed as growth inhibition at 10 uM after 48 hrs by sulforhodamine B assay relative to control; assay type: functional; conditions: NCI-H460, 48 h, read-out: GI
UACC-62 = test: Antiproliferative activity against human UACC62 cells assessed as growth inhibition at 10 uM after 48 hrs by sulforhodamine B assay relative to control; assay type: functional; conditions: UACC-62, 48 h, read-out: GI
MDA-MB-468 = test: Antiproliferative activity against human MDA-MB-468 cells assessed as growth inhibition at 10 uM after 48 hrs by sulforhodamine B assay relative to control; assay type: functional; conditions: MDA-MB-468, 48 h, read-out: GI
NCI-H322M = test: Antiproliferative activity against human NCI-H322M cells assessed as growth inhibition at 10 uM after 48 hrs by sulforhodamine B assay relative to control; assay type: functional; conditions: read-out: GI
HCT-116 [4] = test: cells; conditions: Homo sapiens, HCT-116, 24 h
Description: Cytotoxicity against human HCT116 cells after 24 hrs by MTT assay

PC-3 [5] = test: cells; conditions: Homo sapiens, PC-3, 24 h
Description: Cytotoxicity against human PC3 cells after 24 hrs by MTT assay

MCF7 [6] = test: Cytotoxicity against human MCF7 cells after 24 hrs by MTT assay; assay type: functional, cell-based; conditions: MCF7, 24 h
HeLa = test: Cytotoxicity against human HeLa cells; assay type: functional, cell-based

Structure (SMILES) | inhibition of growth at 10 µM (A549) [%] | inhibition of growth at 10 µM (SK-MEL-5) [%] | inhibition of growth at 10 µM (MOLT-4) [%] | inhibition of growth at 10 µM (UO-31) [%] | inhibition of growth at 10 µM (OVCAR-4) [%] | inhibition of growth at 10 µM (MCF7 [1]) [%] | inhibition of growth at 10 µM (NCI-H522) [%] | inhibition of growth at 10 µM (K562) [%] | inhibition of growth at 10 µM (HL-60(TB)) [%] | inhibition of growth at 10 µM (CAKI-1) [%] | inhibition of growth at 10 µM (HCT-116 [2]) [%] | inhibition of growth at 10 µM (T47D) [%] | inhibition of growth at 10 µM (HCT-15) [%] | inhibition of growth at 10 µM (LOX IMVI) [%] | inhibition of growth at 10 µM (SR) [%] | inhibition of growth at 10 µM (PC-3 [3]) [%] | inhibition of growth at 10 µM (NCI/ADR-RES) [%] | inhibition of growth at 10 µM (SF-295) [%] | inhibition of growth at 10 µM (ACHN) [%] | inhibition of growth at 10 µM (UACC-62) [%] | further results
CCOC(=O)C1=C(CSC(=S)N2CCN(c3ccc(OC)cc3)CC2)N(C)C(=O)NC1c1ccccc1 (stereo not given) | 33 | 51 | 49 | 55 | 29 | 30 | 37 | 47 | 32 | 26 | 57 | 59 | 60 | 33 | 63 | 53 | 13 | 15 | 21 | 42 | inhibition of growth at 10 µM (NCI-H460): 39%; inhibition of growth at 10 µM (MDA-MB-468): 21%; inhibition of growth at 10 µM (NCI-H322M): 17%
CCOC(=O)C1=C(CSc2nnc(-c3ccccc3)o2)N(C)C(=O)NC1c1ccccc1 (stereo not given) | 5 | 10 | 29 | 34 | 14 | 11 | 16 | 34 | 11 | 14 | 19 | 25 | 15 | 27 | 16 | 20 | 15 | 14 | 3 | 10 | inhibition of growth at 10 µM (MDA-MB-468): 17%; inhibition of growth at 10 µM (NCI-H322M): 15%
CCOC(=O)C1=C(CSc2nnc(-c3ccc(C)cc3)o2)N(C)C(=O)NC1c1ccccc1 (stereo not given) |  |  |  |  |  |  |  |  |  |  |  |  |  |  |  |  |  |  |  |  | IC50 (HCT-116 [4]): 36 µM; IC50 (PC-3 [5]): 61.8 µM; IC50 (MCF7 [6]): 25.3 µM
CCOC(=O)C1=C(CSC(=S)N2CCN(c3ccccc3)CC2)N(C)C(=O)NC1c1ccccc1 (stereo not given) | 27 | 23 | 24 | 37 | 15 | 15 | 28 | 22 | 20 | 15 | 41 | 37 | 48 | 13 | 44 | 41 | 5 | 17 | 11 | 24 | inhibition of growth at 10 µM (NCI-H460): 12%; inhibition of growth at 10 µM (MDA-MB-468): 14%; inhibition of growth at 10 µM (NCI-H322M): 15%
CNC(=O)c1cc(Oc2ccc(NC(=O)Nc3ccc(Cl)c(C(F)(F)F)c3)cc2)ccn1 [SORAFENIB] |  |  |  |  |  |  |  |  |  |  |  |  |  |  |  |  |  |  |  |  | IC50 (HeLa): 0.64 µM
CCOC(=O)C1=C(CN(C2CCCCC2)C2CCCCC2)N(C)C(=O)NC1c1ccccc1 (stereo not given) | 33 | 19 | 35 | 27 | 26 | 36 | 18 | 31 | 37 | 30 | 33 | 46 | 11 | 13 | 20 | 58 | 7 | 19 | 13 | 23 | inhibition of growth at 10 µM (NCI-H460): 13%; inhibition of growth at 10 µM (MDA-MB-468): 21%; inhibition of growth at 10 µM (NCI-H322M): 5%
